Tests used:
[1] = Solubility of DFMO; assay type: physicochemical
[2] = healthy men; cited from earlier work
[3] = any route of drug administration; cited from earlier work
[4] = test system: polyamine pools; settings: cited from earlier work
[5] = test system: advanced solid tumors or lymphomas; settings: patients with advanced solid tumors or lymphomas; cited from earlier work
[6] = oral administration; cited from earlier work
[7] = biological target: T1, ornithine decarboxylase (ODC) (Homo sapiens, UniProt P11926); settings: reported by some (Danzin, 1987); cited from earlier work
T1 sequence (P11926 1-461): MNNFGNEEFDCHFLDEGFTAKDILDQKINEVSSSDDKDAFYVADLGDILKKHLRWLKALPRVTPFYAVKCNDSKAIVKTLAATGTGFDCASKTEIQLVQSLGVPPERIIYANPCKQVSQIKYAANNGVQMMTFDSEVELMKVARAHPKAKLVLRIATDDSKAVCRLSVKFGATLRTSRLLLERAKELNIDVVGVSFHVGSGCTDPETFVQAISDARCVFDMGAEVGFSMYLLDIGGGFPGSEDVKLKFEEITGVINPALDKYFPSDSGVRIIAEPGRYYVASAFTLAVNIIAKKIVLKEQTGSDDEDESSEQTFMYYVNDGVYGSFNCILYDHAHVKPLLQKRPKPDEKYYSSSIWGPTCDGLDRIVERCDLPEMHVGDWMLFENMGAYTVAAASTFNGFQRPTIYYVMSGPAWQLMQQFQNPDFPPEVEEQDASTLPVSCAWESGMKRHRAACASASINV

NCCC[C@](N)(C(=O)O)C(F)F (racemic) [DFMO, alpha-difluoromethylornithine]
water solubility [1]: very water-soluble
solubility of DFMO at a neutral pH ([1]; neutral pH versus acid): relatively lower solubility
elimination half-life t½ [2]: about 3.5 hours
share of drug elimination accounted for by renal clearance [2]: 83%
therapeutic responses [3]: No therapeutic responses
minimum effective dose (MED) in significantly reducing polyamine pools in vivo [4]: about 0.43 g/day
therapeutic responses [5]: No therapeutic responses
maximum tolerated dose [6]: about 12 g/m^2/day

NCCC[C@](N)(C(=O)O)C(F)F [(−)-DFMO, alpha-difluoromethylornithine]
enantiomer responsible for ODC inhibition [7]: enantiomer primarily responsible for ODC inhibition

— patent US20020110590A1, “Pharmaceutical formulation containing DEMO for the treatment of cancer” (Ilex Oncology, Inc., priority 1996, published 2002)
